Data on three compounds can be found in US20250049709A1, “ZIPRASIDONE FORMULATIONS” (BELOTECA, INC., priority 2021, published 2025).

≈ marks a conversion by molar mass, not a printed value. Counter-ions that a name gives are not always drawn. Like-named read-outs stand apart in the source and are kept apart here.

For data set [1] the following is noted: cited from earlier work.
Data set [2] can be described thus: pH value of 1% w/v aqueous ziprasidone suspension. It counts as physicochemical. To be noted: 1% w/v aqueous ziprasidone suspension at 25° C. The protocol:
This pH value corresponds to a pH value of ziprasidone in water determined on a 1% w/v aqueous ziprasidone suspension at 25° C.

In the case of ziprasidone mesylate trihydrate, the solubility in water in data set [1] was 13 µg/mL. For `O=C1Cc2cc(CCN3CCN(c4nsc5ccccc45)CC3)c(Cl)cc2N1` [ziprasidone hydrochloride], in data set [1], the solubility in water is 7.18 µg/mL. As for `O=C1Cc2cc(CCN3CCN(c4nsc5ccccc45)CC3)c(Cl)cc2N1` [ziprasidone], the solubility in water in data set [1] (25° C.) was 2130 µg/mL (≈ 5.16 mM). For the same compound, the “pH value of ziprasidone in water” value in data set [2] is on record as approximately 3.2.
